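Exposure lasted 48 hours, with cells grown in 96-well plates and compounds tested at five concentrations. GI50 = concentration required for 50% inhibition of growth. The concentration for full growth arrest is given as TGI.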
Key:
Assay in all cases: inhibition of tumour cell growth, NCI panel, 48 h
[1] = system: NCI-H226 lung
[2] = system: SR leukemia
[3] = system: EKVX NSCLC
[4] = system: SK-MEL-2 melanoma
[5] = system: OVCAR-5 ovarian
[6] = system: NCI-H460 lung
[7] = system: RPMI-8226 leukemia
[8] = system: KM12 colon
[9] = system: CCRF-CEM leukemia
[10] = system: SF-539 CNS

Row | Structure (SMILES) | GI50 [1] | TGI [1] | GI50 [2] | TGI [2] | GI50 [3] | TGI [3] | GI50 [4] | TGI [4] | GI50 [5] | TGI [5] | GI50 [6] | TGI [6] | GI50 [7] | TGI [7] | GI50 [8] | TGI [8] | GI50 [9] | TGI [9] | GI50 [10] | TGI [10]
1 | COc1cccc(-c2nc3sccn3c2-c2ccnc(NCCNC(=O)Nc3cccc(C(F)(F)F)c3)n2)c1 | 4.58 µM | 68.6 µM | 3.75 µM | 29.7 µM | 3.55 µM | 59.6 µM | 2.03 µM | 4.46 µM | 6.37 µM | 52.2 µM | 2.94 µM | 14.4 µM | 1.92 µM | 5.11 µM | 3.36 µM | 10.1 µM | 3.43 µM | > 100 µM | 3.83 µM | 17.1 µM
2 | Cc1cc(S(=O)(=O)Nc2nnc3cc(C(F)(F)F)cc(C)n23)c(S)cc1Cl |  | > 96.5 µM |  | > 100 µM |  | > 100 µM |  | > 100 µM |  | > 100 µM |  | 42.5 µM |  | > 100 µM |  | > 100 µM |  | > 100 µM |  | > 96.6 µM
3 | CSc1ncc2c(n1)-c1ccccc1OC2N1CCCC1 (stereo not given) |  | > 100 µM |  | > 100 µM |  | > 100 µM |  | > 100 µM |  | > 100 µM |  | > 100 µM |  | > 100 µM |  | > 100 µM |  | > 100 µM |  | > 100 µM
4 | O=C(O)c1ccccc1/C=N\NC1=NCCCCN1 |  | > 100 µM |  | > 100 µM |  | > 100 µM |  | > 100 µM |  | > 100 µM |  | > 100 µM |  | > 100 µM |  | > 100 µM |  | > 100 µM |  | > 100 µM
5 | Cc1ccc(S(=O)(=O)N2CCN(CCN(C)CCN3CCN(S(=O)(=O)c4ccc(C)cc4)CC3)CC2)cc1 |  | 79.7 µM |  | 36.3 µM |  | 55.2 µM |  | 33.6 µM |  | 80.8 µM |  | 32.2 µM |  | 37 µM |  | 31.6 µM |  | 44.2 µM |  | 30.3 µM
6 | CCN(CC)CCCNc1ccc2nnn3c4ccc(O)cc4c(=O)c1c23 |  | 22.4 µM |  | 21.8 µM |  | 29.8 µM |  | 28.8 µM |  | 26.8 µM |  | 9.13 µM |  | 32.2 µM |  | 20 µM |  | 39.8 µM |  | 22.8 µM
7 | O=C1OS2(OCc3cccc4cccc2c34)c2ccccc21 (stereo not given) |  | > 100 µM |  | > 100 µM |  | > 100 µM |  | > 100 µM |  | > 100 µM |  | > 100 µM |  | > 100 µM |  | > 100 µM |  | > 100 µM |  | > 100 µM
8 | C=C1C[C@]23C[C@@]1(O)CC[C@H]2[C@@]12C=C[C@H](O)[C@@](C)(C(=O)O1)[C@H]2[C@@H]3C(=O)O |  | > 100 µM |  | > 100 µM |  | > 100 µM |  | > 100 µM |  | > 100 µM |  | > 100 µM |  | > 100 µM |  | > 100 µM |  | > 100 µM |  | > 100 µM
9 | O=C(Nc1cccc(-c2cn3ccccc3n2)c1)c1ccncc1 |  | > 100 µM |  | 71.7 µM |  | > 100 µM |  | 46.5 µM |  | > 100 µM |  | 39 µM |  | 39.7 µM |  | > 100 µM |  | 82.5 µM |  | > 100 µM
10 | NC(=O)CC(Nc1ncc2c(n1)-c1ccccc1OC2)C(=O)O (stereo not given) |  | > 100 µM |  | > 100 µM |  | > 100 µM |  | > 100 µM |  | > 100 µM |  | > 100 µM |  | 82.5 µM |  | > 100 µM |  | > 100 µM |  | > 100 µM
11 | CCOC(=O)C(Cc1ccccc1)(Cc1ccc(O)cn1)NC(=O)c1ccccc1 (stereo not given) |  | > 100 µM |  | > 100 µM |  | > 100 µM |  | 43.9 µM |  | > 100 µM |  | 99.2 µM |  | > 100 µM |  | 54.8 µM |  | > 100 µM |  | 60.6 µM
12 | O=c1[nH]nc(Cc2ccc(Cl)cc2)n1O |  | > 100 µM |  | > 100 µM |  | > 100 µM |  | > 100 µM |  | > 100 µM |  | > 100 µM |  | > 100 µM |  | > 100 µM |  | > 100 µM |  | > 100 µM
13 | CCOP(=O)(OCC)C(Nc1ccc(F)cc1)c1cccc([N+](=O)[O-])c1 (stereo not given) |  | > 100 µM |  | > 100 µM |  | > 100 µM |  | > 100 µM |  | > 100 µM |  | > 100 µM |  | > 100 µM |  | > 100 µM |  | > 100 µM |  | > 100 µM
14 | CC1(C)C2CC(c3ccncc3)ON2C(C)(C)N1O (stereo not given) |  | > 100 µM |  | > 100 µM |  | > 100 µM |  | > 100 µM |  | > 100 µM |  | > 100 µM |  | > 100 µM |  | > 100 µM |  | > 100 µM |  | > 100 µM
15 | COC(=O)C(COC(=O)/C=C/c1ccc(OC(C)=O)c(OC(C)=O)c1)OC(=O)/C=C/c1ccc(OC(C)=O)c(OC(C)=O)c1 (stereo not given) |  | 90.5 µM |  | 11.1 µM |  | 36.9 µM |  | 26 µM |  | 36.8 µM |  | 57.2 µM |  | 66.4 µM |  | 30.8 µM |  | 50.6 µM |  | 24.2 µM
16 | CCOC(=O)C(C(=O)Cc1ccccc1)c1ccccc1 (stereo not given) |  | > 100 µM |  | > 100 µM |  | > 100 µM |  | > 100 µM |  | > 100 µM |  | > 100 µM |  | > 100 µM |  | > 100 µM |  | > 100 µM |  | > 100 µM
